Read-outs that look alike come from different tables or passages of the source.

The target of assay [1] is GSK3α (GST-full length GSK3α) (Homo sapiens (Human), UniProt P49840). Briefly: GSK3α TR-FRET kinase assay. The conditions noted are these: IC50. The format is biochemical. Summed up:
(§1)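 Readout: anti-pSer641 Tb antibody/streptavidin-d2 signal after 60 min, expressed as 665/615 ratio and fitted versus log concentration for IC50. Enzyme: 1 nM GST-GSK3 (α or β), compound-preincubated 30 min. Conditions: pH 7.5 Tris buffer with MgCl2, DTT, BSA; ATP at 4 or 2 μM, or 1 mM; 100 min.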
On the technique in general: Time-resolved FRET reads energy transfer from a long-lived donor to a nearby acceptor.

The target of assay [2] is GSK3b (GST-full length GSK3b) (Homo sapiens (Human), UniProt P49841). Kind of assay: GSK3b TR-FRET kinase assay. Type of assay: biochemical. The conditions noted are these: IC50. Summed up: as §1
Setting [3] is: 1 nM GSK3α, 4 μM ATP, 30 minute preincubation, geometric mean, read-out: GSK3-A TR-FRET BIOCHEMICAL (TR-FRET), GMean.
Setting [4] is: read-out: GSK3-A (TR-FRET 1 mM ATP), GMean, 1 mM ATP, geometric mean.
[5] abbreviates: 1 nM GSK3b, 2 μM ATP, 30 minute preincubation, geometric mean, read-out: GSK3-B TR-FRET BIOCHEMICAL (TR-FRET), GMean.
The mark [6] stands for this setting: read-out: GSK3-B (TR-FRET 1 mM ATP), GMean, 1 mM ATP, geometric mean.
Setting [7] is: 1 nM GSK3α, 4 μM ATP, 30 minute preincubation, Table 16, read-out: GSK3-A TR-FRET BIOCHEMICAL (TR-FRET).
The mark [8] stands for this setting: 1 nM GSK3b, 2 μM ATP, 30 minute preincubation, Table 16, read-out: GSK3-B TR-FRET BIOCHEMICAL (TR-FRET).

GSK3α (GST-full length GSK3α), sequence (P49840 whole entry): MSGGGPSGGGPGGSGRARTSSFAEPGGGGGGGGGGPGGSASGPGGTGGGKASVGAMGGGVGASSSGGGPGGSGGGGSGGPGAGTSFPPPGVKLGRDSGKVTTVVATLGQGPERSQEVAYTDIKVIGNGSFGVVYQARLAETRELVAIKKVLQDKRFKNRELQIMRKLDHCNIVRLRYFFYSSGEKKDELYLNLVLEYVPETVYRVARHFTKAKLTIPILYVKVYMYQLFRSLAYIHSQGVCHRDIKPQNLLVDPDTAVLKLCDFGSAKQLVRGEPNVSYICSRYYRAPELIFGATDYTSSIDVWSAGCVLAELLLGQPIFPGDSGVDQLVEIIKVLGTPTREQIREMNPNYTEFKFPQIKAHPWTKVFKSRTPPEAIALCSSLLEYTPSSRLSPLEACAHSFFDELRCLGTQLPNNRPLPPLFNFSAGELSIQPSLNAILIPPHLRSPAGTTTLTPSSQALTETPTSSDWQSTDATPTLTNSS
GSK3b (GST-full length GSK3b), sequence (P49841 whole entry): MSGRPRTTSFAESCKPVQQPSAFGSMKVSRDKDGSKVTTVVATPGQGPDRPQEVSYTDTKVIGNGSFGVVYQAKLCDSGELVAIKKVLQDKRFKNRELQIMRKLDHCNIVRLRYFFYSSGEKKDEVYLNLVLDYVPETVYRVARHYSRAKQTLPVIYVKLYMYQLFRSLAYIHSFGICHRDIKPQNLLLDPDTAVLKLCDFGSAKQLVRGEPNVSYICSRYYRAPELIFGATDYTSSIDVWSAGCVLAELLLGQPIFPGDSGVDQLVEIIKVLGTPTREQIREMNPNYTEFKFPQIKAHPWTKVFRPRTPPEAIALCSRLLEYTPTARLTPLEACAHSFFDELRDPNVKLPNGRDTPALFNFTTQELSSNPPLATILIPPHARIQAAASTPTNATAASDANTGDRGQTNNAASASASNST

In the case of `CCC1(c2cccc(-c3cnn(C)c3)c2)C2=C(CC(C)(C)NC2=O)Nc2n[nH]c(C(F)F)c21` (centres unmarked) [Compound 949171], the IC50 in assay [1] (setting [3]) was not above 100 nM; in assay [1] (setting [4]) it was not above 100 nM; in assay [2] (setting [5]) it was not above 100 nM; in assay [2] (setting [6]), 1000 to 5000 nM.

For `CCC1(c2cccc(C(C)C)c2)C2=C(CC(C)(C)NC2=O)Nc2n[nH]c(C)c21` (centres unmarked) [Compound 949173], the IC50 in assay [1] (setting [3]) and in assay [2] (setting [5]) was not above 100 nM throughout.

For `CCC1(c2cccc(-c3cc(C)nnc3C)c2)C2=C(CC(C)(C)NC2=O)Nc2n[nH]c(C(F)(F)F)c21` (centres unmarked) [Compound 949174], the IC50 was not above 100 nM in assay [1] (setting [3]), 100 to 1000 nM in assay [1] (setting [4]), not above 100 nM in assay [2] (setting [5]) and 100 to 1000 nM in assay [2] (setting [6]).

On to `CC[C@]1(c2cccc(S(=O)(=O)CC3CC3)c2)C2=C(CC(C)(C)NC2=O)Nc2n[nH]c(C(F)(F)F)c21` [Compound 949175], for which the IC50 in assay [1] (setting [3]), in assay [1] (setting [4]), in assay [2] (setting [5]) and in assay [2] (setting [6]) was not above 100 nM in each case.

As to `CC[C@]1(c2cccc(S(=O)(=O)C3CC3)c2)C2=C(CC(C)(C)N(C)C2=O)Nc2n[nH]cc21` [Compound 949177], the IC50 is not above 100 nM in assay [1] (setting [3]), 100 to 1000 nM in assay [1] (setting [4]), not above 100 nM in assay [2] (setting [5]) and 1000 to 5000 nM in assay [2] (setting [6]).

Take `CC[C@]1(c2cccc(N3CCCCC3)c2)C2=C(CC(C)(C)NC2=O)Nc2n[nH]c(C(F)(F)F)c21` [Compound 949178]: the IC50 in assay [1] (setting [3]) is 100 to 1000 nM; in assay [2] (setting [5]) it was 1000 to 5000 nM.

Regarding `CC[C@]1(c2cccc(N(C)c3ncccn3)c2)C2=C(CC(C)(C)NC2=O)Nc2n[nH]cc21` [Compound 949179], the IC50 in assay [1] (setting [3]) was 100 to 1000 nM; in assay [2] (setting [5]) it was more than 5000 nM.

As to `CCC1(c2cccc(N(C)c3ncccn3)c2)C2=C(CC(C)(C)NC2=O)Nc2n[nH]c(C(F)(F)F)c21` (centres unmarked) [Compound 949181], the results for the IC50 in assay [1] (setting [4]) and in assay [2] (setting [6]) were not above 100 nM and 100 to 1000 nM, respectively.

Turning to `CCC1(c2cccc(N(C)c3ncccn3)c2)C2=C(CC(C)(C)NC2=O)Nc2n[nH]c(C)c21` (centres unmarked) [Compound 949182], the IC50 in assay [1] (setting [3]) and in assay [2] (setting [5]) was not above 100 nM in each case.

Take `CCC1(c2cccc(N3CCCCC3)c2)C2=C(CC(C)(C)NC2=O)Nc2n[nH]c(C(F)(F)F)c21` (centres unmarked) [Compound 949183]: the IC50 in assay [1] (setting [3]) is not above 100 nM; in assay [1] (setting [4]), not above 100 nM; in assay [2] (setting [5]), not above 100 nM; in assay [2] (setting [6]), 100 to 1000 nM.

With `CC[C@@]1(c2cccc(S(=O)(=O)C3CC3)c2)C2=C(CC(C)(C)N(C)C2=O)Nc2n[nH]cc21` [Compound 949184], the IC50 was 1000 to 5000 nM in assay [1] (setting [7]) and more than 5000 nM in assay [2] (setting [8]).

In the case of `CC[C@@]1(c2cccc(-c3cn(C)nc3C)c2)C2=C(CC(C)(C)NC2=O)Nc2n[nH]c(F)c21` [Compound 949185], the IC50 is not above 100 nM in assay [1] (setting [7]), not above 100 nM in assay [1] (setting [4]), not above 100 nM in assay [2] (setting [8]) and 1000 to 5000 nM in assay [2] (setting [6]).

For the compound `CC[C@@]1(c2cccc(S(=O)(=O)CC3CC3)c2)C2=C(CC(C)(C)NC2=O)Nc2n[nH]c(C(F)(F)F)c21` [Compound 949186], the IC50 in assay [1] (setting [7]) and in assay [2] (setting [8]) was 100 to 1000 nM each time.

For `CC[C@@]1(c2cccc(-c3cnn4ccncc34)c2)C2=C(CC(C)(C)NC2=O)Nc2n[nH]cc21` [Compound 949263], the IC50 in assay [1] (setting [7]) and in assay [2] (setting [8]) was more than 5000 nM each time.

Consider `CC[C@@]1(c2cccc(-c3cnn(-c4ccccn4)c3)c2)C2=C(CC(C)(C)NC2=O)Nc2n[nH]cc21` [Compound 949264], for which the IC50 in assay [1] (setting [7]) and in assay [2] (setting [8]) was more than 5000 nM throughout.

For the compound `CCC1(c2cccc(-c3cn(C)nc3C(F)(F)F)c2)C2=C(CC(C)(C)NC2=O)Nc2n[nH]cc21` (centres unmarked) [Compound 949266], the IC50 was not above 100 nM in assay [1] (setting [7]) and 100 to 1000 nM in assay [2] (setting [8]).

The values are drawn from patent US20250313563A1, “GLYCOGEN SYNTHASE KINASE 3 INHIBITORS AND USES THEREOF” (The Broad Institute, Inc., priority 2022, published 2025).
